Reference: patent US9044491B2, “Method for improving blood flow using stilbenoid derivatives” (The Board of Trustees of the University of Arkansas, priority 2010, dated 2015)
Like-named read-outs stand apart in the source and are kept apart here.

Tests used:
[1] = system: CLP or Control (Sham) mice; test: Renal arterial blood flow by Doppler flow probe; type: in vivo, mouse; settings: CPL-treated mice
Description: Under isoflurane anesthesia, the right kidney was exposed by flank incision and the renal artery and vein were carefully dissected from surrounding tissue with Dumont-5 forceps. The renal artery was isolated from the vein and a Transonic Systems (Ithaca, N.Y.) 0.5 PSL renal artery Doppler flow probe was positioned around the renal artery. The probe was calibrated in water using the zero and scale settings on the TS420 flowmeter (Transonic Systems). […] Body temperature was maintained at 36 to 37° C. with a heating lamp. Data were expressed in ml/min/g kidney weight.
Renal blood flow was measured essentially as described above in Example 10 following CPL surgery or control treatment (no surgery). CPL-treated mice were administered 10 mg/kg of resveratrol, 2.5 mg/kg of resveratrol-3-sulfate, or vehicle. […] In fact, resveratrol-3-sulfate produced the same degree of reversal at 25% of the dose of resveratrol.

[2] = system: human intestinal microsomes; test: Glucuronidation by human intestinal microsomes; type: in vitro ADME; settings: substrate 250 μM, UDP-GlcUA 4 mM
Experimental: Glucuronidation products were analyzed by HPLC and LCMS/MS.

[3] = target: T1, CB1 receptors (Mus musculus, UniProt P47746); test: CB1 binding, 3H-CP 55,940 displacement in mouse brain membranes; settings: isoprenyl group and additional hydroxyl group
T1 construct: from tissue; host or cells: mouse brain membranes
T1 sequence (P47746 whole entry): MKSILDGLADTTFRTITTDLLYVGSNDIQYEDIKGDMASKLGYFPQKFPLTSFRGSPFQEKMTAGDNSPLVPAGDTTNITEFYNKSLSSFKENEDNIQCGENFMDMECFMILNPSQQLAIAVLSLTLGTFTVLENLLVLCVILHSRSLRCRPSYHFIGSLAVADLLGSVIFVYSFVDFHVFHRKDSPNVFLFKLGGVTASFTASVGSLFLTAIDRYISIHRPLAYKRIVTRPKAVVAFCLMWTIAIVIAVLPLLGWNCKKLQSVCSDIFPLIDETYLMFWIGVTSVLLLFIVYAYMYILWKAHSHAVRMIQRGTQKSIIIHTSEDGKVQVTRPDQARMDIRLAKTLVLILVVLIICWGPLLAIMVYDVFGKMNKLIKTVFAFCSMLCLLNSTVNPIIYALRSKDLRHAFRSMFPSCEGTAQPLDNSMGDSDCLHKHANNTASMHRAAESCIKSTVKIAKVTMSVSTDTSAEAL
Experimental: (§1) Membrane preparations were prepared from mouse brain to examine CB1 binding. For CB2 binding, membrane preparations were prepared from CHO cells stably transformed with human CB2.

[4] = target: T1, CB1 receptors; type: biochemical
[5] = system: CB1 receptors; type: biochemical, mouse; settings: 10 μM compound, 30 min at 30° C.
[6] = target: T2, human UGT1A10 (Homo sapiens, UniProt Q9HAW8); test: Glucuronidation by recombinant human UGT1A10 (activity and kinetic constants)
T2 sequence (Q9HAW8 26-530): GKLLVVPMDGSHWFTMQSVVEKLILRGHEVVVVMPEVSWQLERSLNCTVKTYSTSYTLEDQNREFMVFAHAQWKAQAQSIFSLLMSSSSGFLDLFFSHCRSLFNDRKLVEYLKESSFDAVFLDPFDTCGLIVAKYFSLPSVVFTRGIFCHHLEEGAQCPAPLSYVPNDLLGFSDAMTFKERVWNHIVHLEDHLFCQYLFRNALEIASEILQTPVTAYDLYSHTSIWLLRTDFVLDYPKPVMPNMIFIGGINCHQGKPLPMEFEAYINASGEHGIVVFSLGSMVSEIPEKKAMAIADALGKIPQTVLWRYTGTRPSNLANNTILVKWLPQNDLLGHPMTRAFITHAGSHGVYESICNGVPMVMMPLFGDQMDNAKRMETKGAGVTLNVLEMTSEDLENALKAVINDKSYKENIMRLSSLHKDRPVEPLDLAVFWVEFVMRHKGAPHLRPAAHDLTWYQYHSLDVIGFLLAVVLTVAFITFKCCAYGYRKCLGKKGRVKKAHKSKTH
Experimental: (§2) Eight human recombinant UGT1A isoforms (UGT1A1, 1A3, 1A4, 1A6, 1A7, 1A8, 1A9, and 1A10; 5 μg) expressed as His-tag proteins in baculovirus-infected Sf9 insect cells and human liver microsomes (from one donor; HL2; 50 μg) and human intestinal microsomes (from two donors; HI36 and HI41; 50 μg) were evaluated for their ability to glucuronidate these four compounds. The concentrations of the substrate and co-substrate (i.e., UDP-GlcUA) were 250 μM and 4 mM, respectively. Glucuronidation products were analyzed by HPLC and LCMS/MS.
(§3) The kinetic constants of the glucuronidation reactions using recombinant human UGT1A1 and UGT1A10 were determined by measuring the enzyme activity in the presence of increasing concentrations of substrate (see FIG. 2).

[7] = target: T3, human CB2 (Homo sapiens, UniProt P34972); test: CB2 binding, 3H-CP 55,940 displacement in CHO-hCB2 membranes; settings: 0.2 nM 3H-CP 55,940
T3 construct: expressed in transfected cells; host or cells: CHO cells stably transformed with human CB2
T3 sequence (P34972 whole entry): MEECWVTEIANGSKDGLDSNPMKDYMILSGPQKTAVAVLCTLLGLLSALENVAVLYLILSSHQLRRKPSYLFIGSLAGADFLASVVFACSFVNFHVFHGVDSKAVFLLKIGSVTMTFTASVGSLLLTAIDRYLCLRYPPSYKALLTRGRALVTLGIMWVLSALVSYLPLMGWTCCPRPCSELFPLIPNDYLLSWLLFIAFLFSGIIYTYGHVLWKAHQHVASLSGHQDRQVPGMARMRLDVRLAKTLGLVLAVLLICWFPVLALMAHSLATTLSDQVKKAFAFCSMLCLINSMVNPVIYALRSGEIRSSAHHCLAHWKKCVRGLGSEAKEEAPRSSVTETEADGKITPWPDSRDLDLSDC
Experimental: as §1

[8] = target: T4, human UGT1A1 (Homo sapiens, UniProt P22309); test: Glucuronidation by recombinant human UGT1A1 (activity and kinetic constants)
T4 sequence (P22309 26-533): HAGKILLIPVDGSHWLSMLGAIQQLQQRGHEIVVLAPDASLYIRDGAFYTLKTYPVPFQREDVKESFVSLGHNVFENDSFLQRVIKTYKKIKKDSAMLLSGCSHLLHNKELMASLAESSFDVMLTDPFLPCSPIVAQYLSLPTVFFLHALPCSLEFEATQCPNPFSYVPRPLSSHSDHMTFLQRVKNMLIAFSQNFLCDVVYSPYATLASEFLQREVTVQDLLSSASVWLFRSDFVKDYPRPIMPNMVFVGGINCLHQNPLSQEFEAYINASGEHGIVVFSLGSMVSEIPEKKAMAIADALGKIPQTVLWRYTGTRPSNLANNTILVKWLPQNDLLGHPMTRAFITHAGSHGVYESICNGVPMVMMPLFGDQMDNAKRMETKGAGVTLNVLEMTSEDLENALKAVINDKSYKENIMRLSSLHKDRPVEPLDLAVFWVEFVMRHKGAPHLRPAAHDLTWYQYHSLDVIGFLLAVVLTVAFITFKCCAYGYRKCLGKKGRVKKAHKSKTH
Experimental: as §2, §3

With `O=S(=O)(O)Oc1cc(O)cc(C=Cc2ccc(O)cc2)c1` [resveratrol-3-sulfate] the “dose producing the same degree of reversal, relative to resveratrol” value [1] was 25 % of the dose of resveratrol and the renal blood flow ([1]; 2.5 mg/kg (Example 15)) was “increased blood flow”.

For trans-arachidin-1 [tA1], the “production of 3G glucuronide by HIM” value [2] was “large amount”, the “enhancement of binding affinity for CB1” value [3] was 2 fold and the “maximal response produced by CP-55,940” value ([4]; in the presence of 10 μM tA-1) was 0.22±0.04 pmole/mg protein. The EC50 ([4]; in the presence of 10 μM tA-1, read-out: ED50 of CP-55,940 required to activate G-proteins) was 28 nM, the “basal G-protein activity” value [5] was “markedly reduced” and the “kinetics of 4′-O-Gluc formation by UGT1A10” value [6] was “substrate inhibition kinetics”. For the same compound, the Kinetics ([6]; product 4′-glucuronide (4′G)) was “USI”.

For `O=C(O)[C@H]1O[C@@H](Oc2ccc(/C=C/c3cc(O)cc(O)c3)cc2)[C@H](O)[C@@H](O)[C@@H]1O` [4′-Gluc-rRes], the Ki [7] was greater than 100000 nM.

In the case of `CC(C)/C=C/c1c(O)cc(/C=C/c2ccc(O)cc2)cc1O` [tA3, trans-arachidin-3], the EC50 ([4]; in the presence of 30 μM tA-3, read-out: ED50 of CP-55,940 required to activate G-proteins) is reported as 127 nM, the “basal G-protein activity” value [5] is reported as “little effect” and the Kinetics ([8]; product 3-glucuronide (3G)) is reported as “M-M”. For the same compound, the Kinetics ([8]; product 4′-glucuronide (4′G)) was “M-M”, the “kinetics of 4′-O-Gluc formation by UGT1A10” value [6] was “substrate inhibition kinetics” and the Kinetics ([6]; product 4′-glucuronide (4′G)) was “USI”.

For `CCCCCCC(C)(C)c1ccc([C@@H]2C[C@H](O)CC[C@H]2CCCO)c(O)c1` [CP-55,940], the G-protein activity ([4]; 1 μM compound, 30 min at 30° C.) was “stimulated”, the “maximal response produced by CP-55,940” value ([4]; CP-55,940 alone) was 0.34±0.03 pmole/mg protein and the EC50 ([4]; CP-55,940 alone, read-out: ED50 required to activate G-proteins) was 4.3 nM.

With `Oc1cc(O)cc(/C=C/c2ccc(O)c(O)c2)c1` [tPice, trans-piceatannol] the Ki [7] was 114000 ± 7800 nM, the “basal G-protein activity” value [5] was “markedly reduced” and the Kinetics ([8]; product 3-glucuronide (3G)) was “M-M”. For the same compound, the Kinetics ([8]; product 4′-glucuronide (4′G)) was “M-M”, the Kinetics ([6]; product 3-glucuronide (3G)) was “M-M” and the Kinetics ([6]; product 4′-glucuronide (4′G)) was “Hill”. The “n (Hill coeff)” value ([6]; product 4′-glucuronide (4′G)) was 1.7.

In the case of `O=C(O)[C@H]1O[C@@H](Oc2cc(O)cc(/C=C/c3ccc(O)c(O)c3)c2)[C@H](O)[C@@H](O)[C@@H]1O` [3-Gluc-tPice], the Ki [7] is reported as greater than 100000 nM.
